Laboratory results as given in US8471005B2 (Cephalon, Inc., priority 2008, dated 2013).
Where two headings read alike, the source gives them in different places.

Assays:
ALK = biological target: T1, ALK (Homo sapiens, UniProt Q9UM73); assay: ALK Kinase Assay (ELISA/TRF, PLC-γ substrate); assay type: biochemical; settings: read-out: ALK Potency
T1 construct: host or cells: baculovirus expression system
Method in brief: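 Read-out is time-resolved fluorescence from a Eu-N1-labeled PT66 antibody that binds phosphorylated PLC-γ, the substrate coated at 10 μg/mL in TBS. ALK at 30 ng/ml starts the reaction, which runs 15 minutes at 37° C.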

JAK2 = biological target: T2, JAK2 (Homo sapiens, UniProt O60674); assay: Recombinant Human JAK2 Kinase Assay (TRF); assay type: biochemical; settings: read-out: JAK2 Potency
T2 construct: host or cells: baculovirus expression system
Method in brief: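 Kinase activity of baculovirus-expressed JAK2 is followed on a surface-immobilised biotinylated peptide, with the reaction run for 20 min at room temperature in buffer containing 0.2 μM ATP and manganese. Phosphorylation is read with Eu-N1 PY100 antibody.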

[1] = ALK kinase inhibition, 1 μM ATP
[2] = JAK2 kinase inhibition, 0.2 μM ATP

T2 sequence (O60674 whole entry): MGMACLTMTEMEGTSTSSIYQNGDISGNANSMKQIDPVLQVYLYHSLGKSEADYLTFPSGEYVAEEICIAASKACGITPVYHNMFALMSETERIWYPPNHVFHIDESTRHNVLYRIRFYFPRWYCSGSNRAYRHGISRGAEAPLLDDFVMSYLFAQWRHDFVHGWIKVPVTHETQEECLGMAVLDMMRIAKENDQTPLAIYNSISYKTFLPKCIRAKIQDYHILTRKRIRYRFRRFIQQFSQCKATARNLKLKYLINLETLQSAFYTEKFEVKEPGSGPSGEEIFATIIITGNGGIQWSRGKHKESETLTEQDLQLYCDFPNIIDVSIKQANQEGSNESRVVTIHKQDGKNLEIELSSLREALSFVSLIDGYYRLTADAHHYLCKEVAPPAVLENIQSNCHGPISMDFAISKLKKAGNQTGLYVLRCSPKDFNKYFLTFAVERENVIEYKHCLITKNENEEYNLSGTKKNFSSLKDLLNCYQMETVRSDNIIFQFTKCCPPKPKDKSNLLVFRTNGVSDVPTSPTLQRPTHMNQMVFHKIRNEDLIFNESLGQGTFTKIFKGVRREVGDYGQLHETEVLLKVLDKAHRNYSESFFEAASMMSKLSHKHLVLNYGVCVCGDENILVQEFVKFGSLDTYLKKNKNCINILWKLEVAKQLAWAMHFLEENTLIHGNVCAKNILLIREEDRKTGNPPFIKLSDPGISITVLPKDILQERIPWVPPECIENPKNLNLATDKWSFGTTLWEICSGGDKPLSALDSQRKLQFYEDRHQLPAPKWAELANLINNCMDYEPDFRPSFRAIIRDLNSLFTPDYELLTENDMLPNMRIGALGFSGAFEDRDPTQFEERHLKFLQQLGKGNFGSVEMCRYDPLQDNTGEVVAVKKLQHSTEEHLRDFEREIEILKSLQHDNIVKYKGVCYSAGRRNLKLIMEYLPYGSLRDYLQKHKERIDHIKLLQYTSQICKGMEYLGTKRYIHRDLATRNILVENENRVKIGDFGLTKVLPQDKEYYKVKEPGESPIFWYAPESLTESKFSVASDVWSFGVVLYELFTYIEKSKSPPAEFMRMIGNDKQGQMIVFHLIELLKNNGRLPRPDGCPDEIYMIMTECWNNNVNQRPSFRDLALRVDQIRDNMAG
T1 sequence (Q9UM73 19-1620): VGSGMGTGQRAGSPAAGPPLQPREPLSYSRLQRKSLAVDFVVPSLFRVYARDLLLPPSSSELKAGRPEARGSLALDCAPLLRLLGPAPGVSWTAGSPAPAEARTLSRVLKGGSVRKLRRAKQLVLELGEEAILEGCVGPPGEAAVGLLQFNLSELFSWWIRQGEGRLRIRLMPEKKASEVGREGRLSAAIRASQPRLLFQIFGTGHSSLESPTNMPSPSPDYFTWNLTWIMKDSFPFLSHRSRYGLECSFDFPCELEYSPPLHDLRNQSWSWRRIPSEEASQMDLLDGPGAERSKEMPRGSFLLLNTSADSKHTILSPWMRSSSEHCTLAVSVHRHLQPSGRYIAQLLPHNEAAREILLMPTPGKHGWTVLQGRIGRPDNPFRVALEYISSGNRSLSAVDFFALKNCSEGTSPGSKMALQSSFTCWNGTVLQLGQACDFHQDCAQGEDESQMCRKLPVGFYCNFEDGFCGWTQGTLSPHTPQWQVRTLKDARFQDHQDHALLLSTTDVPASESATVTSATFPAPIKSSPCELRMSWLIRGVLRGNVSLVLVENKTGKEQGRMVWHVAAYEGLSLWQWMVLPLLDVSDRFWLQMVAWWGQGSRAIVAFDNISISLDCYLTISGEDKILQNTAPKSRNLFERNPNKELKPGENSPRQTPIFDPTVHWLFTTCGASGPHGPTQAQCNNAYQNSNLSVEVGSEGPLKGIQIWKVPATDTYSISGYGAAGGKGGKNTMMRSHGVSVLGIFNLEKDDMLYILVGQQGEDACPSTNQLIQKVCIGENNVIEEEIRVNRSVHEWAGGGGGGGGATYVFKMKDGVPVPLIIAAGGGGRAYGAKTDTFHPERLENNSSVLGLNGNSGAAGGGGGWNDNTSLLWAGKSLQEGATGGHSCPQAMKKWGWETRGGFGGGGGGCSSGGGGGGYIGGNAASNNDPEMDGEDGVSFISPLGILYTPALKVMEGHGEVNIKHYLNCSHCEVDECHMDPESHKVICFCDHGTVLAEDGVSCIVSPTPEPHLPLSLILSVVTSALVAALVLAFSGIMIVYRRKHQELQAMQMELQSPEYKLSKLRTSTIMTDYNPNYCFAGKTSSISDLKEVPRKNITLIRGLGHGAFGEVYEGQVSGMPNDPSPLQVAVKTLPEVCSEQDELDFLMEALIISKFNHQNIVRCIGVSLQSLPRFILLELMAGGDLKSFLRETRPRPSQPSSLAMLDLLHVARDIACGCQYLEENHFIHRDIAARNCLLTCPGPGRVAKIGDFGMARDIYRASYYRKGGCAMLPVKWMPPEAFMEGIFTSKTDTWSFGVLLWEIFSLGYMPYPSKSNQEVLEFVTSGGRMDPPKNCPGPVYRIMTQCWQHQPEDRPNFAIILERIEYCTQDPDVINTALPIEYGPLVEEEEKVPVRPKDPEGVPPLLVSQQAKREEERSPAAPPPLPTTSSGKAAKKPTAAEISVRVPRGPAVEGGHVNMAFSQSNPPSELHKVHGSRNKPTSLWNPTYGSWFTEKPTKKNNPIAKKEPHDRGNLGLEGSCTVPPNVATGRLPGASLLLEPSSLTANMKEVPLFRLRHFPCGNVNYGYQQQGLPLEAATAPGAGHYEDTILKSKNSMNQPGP

Row | Substance | IC50 (ALK; [1]) [nM] | IC50 (JAK2; [2]) [nM] | IC50 (ALK; ALK Kinase Inhibition) [nM] | IC50 (JAK2; JAK2 Kinase Inhibition) [nM]
1 | N-{2-[2-(2-Oxo-2,3-dihydro-benzooxazol-6-ylamino)pyrrolo[2,1-f][1,2,4]triazin-7-yl]phenyl}methanesulfonamide [Example 629] | 100 to 1000 | < 100 |  | 
2 | N-{2-[2-(3,3-Dimethyl-2-oxo-2,3-dihydro-1H-indol-6-ylmethyl)-pyrrolo[2,1-f][1,2,4]triazin-7-yl]-phenyl}-N-methyl-methanesulfonamide [Example 661] | 100 to 1000 | < 100 |  | 
3 | N-{2-[2-(4-{4-[1-(2-Hydroxy-ethyl)-piperidin-4-yl]-[1,4]diazepan-1-yl}-2-methoxy-phenylamino)-pyrrolo[2,1-f][1,2,4]triazin-7-yl]-phenyl}-N-methyl-methanesulfonamide [Example 802] | < 100 | 1000 to 10000 |  | 
4 | N-{2-[2-(4-{4-[(2-Hydroxy-ethyl)-methyl-amino]-piperidin-1-yl}-2-ethoxy-phenylamino)-pyrrolo[2,1-f][1,2,4]triazin-7-yl]-phenyl}-N-methyl-methanesulfonamide [Example 795] | < 100 | 100 to 1000 |  | 
5 | N-{2-[2-(5,5-Dimethyl-2-oxo-2,3,4,5-tetrahydro-1H-benzo[b]azepin-7-ylamino)pyrrolo[2,1-f][1,2,4]triazin-7-yl}-phenyl]methanesulfonamide [Example 624] | < 100 | < 100 |  | 
6 | N-{2-tert-Butyl-5-[7-(5-chloro-2-methoxy-phenyl)-pyrrolo[2,1-f][1,2,4]triazin-2-ylamino]-phenyl}-acetamide [Example 305] |  |  | 100 to 1000 | < 100
7 | [4-(4-Diethylamino-piperidin-1-yl)-phenyl]-[7-(4-methanesulfonyl-phenyl)-pyrrolo[2,1-f][1,2,4]triazin-2-yl]-amine [Example 1136] | 100 to 1000 | < 100 |  | 
8 | [5-Bromo-7-(4-methanesulfonyl-phenyl)-pyrrolo[2,1-f][1,2,4]triazin-2-yl]-(4-morpholin-4-yl-phenyl)-amine [Example 99] |  |  | > 10000 | < 100
9 | [7-(2-Methoxy-phenyl)-pyrrolo[2,1-f][1,2,4]triazin-2-yl]-(2-methyl-1,2,3,4-tetrahydro-isoquinolin-7-yl)-amine [Example 984] | 100 to 1000 | < 100 |  | 
10 | [7-(3-Chloro-phenyl)-pyrrolo[2,1-f][1,2,4]triazin-2-yl]-{4-[2-(4-ethyl-piperazin-1-yl)-ethoxy]-phenyl}-amine [Example 93] |  |  | < 100 | < 100
11 | [7-(4-Methanesulfonyl-phenyl)-pyrrolo[2,1-f][1,2,4]triazin-2-yl]-(4-morpholin-4-yl-phenyl)-amine [Example 38] |  |  | 100 to 1000 | < 100
12 | [7-(4-Methanesulfonyl-phenyl)-pyrrolo[2,1-f][1,2,4]triazin-2-yl]-(4-piperidin-1-yl-phenyl)-amine [Example 85] |  |  | > 10000 | < 100
13 | [7-(4-Methanesulfonyl-phenyl)-pyrrolo[2,1-f][1,2,4]triazin-2-yl]-[2-methoxy-4-(4-methyl-piperazin-1-yl)-phenyl]-amine [Example 1126] | < 100 | < 100 |  | 
14 | [7-(6-Methoxy-pyridin-3-yl)-pyrrolo[2,1-f][1,2,4]triazin-2-yl]-(2-methyl-1,2,3,4-tetrahydro-isoquinolin-7-yl)-amine [Example 985] | < 100 | < 100 |  | 
15 | {6-[7-(3-tert-Butylsulfamoyl-phenyl)-pyrrolo[2,1-f][1,2,4]triazin-2-yl amino]-2-hydroxy-indan-1-yl}-carbamic acid tert-butyl ester [Example 672] | 100 to 1000 | < 100 |  | 
